Measurements taken from patent US12419898B2, “Synergistic composition for maintenance of healthy balance of microflora” (Kimberly-Clark Worldwide, Inc., priority 2015, dated 2025).

Tested on: L. crispatus and E. coli
Experiment: Therapeutic effect protocol: L. crispatus / E. coli co-culture in LAPT-g media supplemented with therapeutic agents
Assay type: cell-based
Settings: anaerobic, 37° C., measured 36 hours after inoculation, agent w/vol % as given per sample
Experimental: Therapeutic Effect Protocol
Colonies of L. crispatus and E. coli were prepared as follows. A colony of L. crispatus was transferred to 7 ml MRS broth and incubated anaerobically (using BD GasPak EZ anaerobe container system with indicator) at 37° C. without shaking for 18-20 hours. A colony of E. coli was transferred to 5 ml TSB broth and incubated aerobically (shaking at 100 rpm) at 37° C. for 18-20 hours.
Colonies were then inoculated as follows. Bacterial cultures were gently vortexed and 1 mL of each culture was transferred to a corresponding 2.0 mL micro-centrifuge tube and then centrifuged for two minutes at 14,500 rpm. The cultural supernatant was removed and the cell pellet was re-suspended in 1 mL of 0.95% (wt/vol %) saline. The re-suspended colony was then centrifuged for two minutes at 14,500 rpms and the supernatant was removed. For L. crispatus, the pellet was re-suspended in 1 mL of 0.95% saline to achieve ˜10^7-10^8 cfu/mL. For E. coli the pellet was re-suspended in 1 mL of 0.95% saline to achieve ˜10^8-10^9 cfu/mL.
Media were prepared as follows.
All of the ingredients in Table 1 were combined and the pH was adjusted to 6.5. The media were then autoclaved for 20 minutes at 125° C. To evaluate the effect of various therapeutic agents on the growth of bacteria the LAPT-g media, prepared as described above, was supplemented with various therapeutic agents to a final test concentration between 0.1 and 1.0%.
Five milliliters (5 mL) of each medium was transferred to a test tube in duplicates for subsequent inoculation. A master mixture of L. crispatus and E. coli, prepared as described above, was prepared in 1,000:1 ratio. Each (5 ml) test tube was inoculated with the master mixture to give 10^5-10^6 total CFU L. crispatus and 100-1,000 total CFU E. coli per tube.
To establish a negative control, one tube was vortexed and 100 μL was removed to determine the initial cell concentrations by serial dilutions and plating (2 plates per dilution). L. crispatus is selected on MRS agar plates incubated anaerobically at 37° C. for two days. E. coli is selected on TSA plates incubated aerobically at 37° C. for one day. The co-cultures were incubated in an anaerobic container with BD GasPaks at 37° C. for 36 hours.
The effect of the carbon source on the ratio of L. crispatus to E. coli was measured 36 hours after inoculation. The co-culture tube was vortexed and 100 μL was removed to determine the final cell concentrations by serial dilutions and plating (2 plates per dilution). L. crispatus is selected on MRS agar plates incubated anaerobically at 37° C. for two days. E. coli is selected on TSA plates incubated aerobically at 37° C. for one day.
Inventive samples were prepared by supplementing LAPT-g media, prepared as described above, with various therapeutic agents as described in Table 2, below. The therapeutic effect of the formulation was then measured using the assay described above in the Test Methods section above. The therapeutic effect is summarized below as the ratio of L. crispatus to E. coi.

| Compound | L. crispatus/E. coli ratio |
| --- | --- |
| O=C(O)CC(O)C(=O)O (centres unmarked) [Sample 29, Malic acid] | 30.7 |
| OCc1ccccc1O[C@@H]1O[C@H](CO)[C@@H](O)[C@H](O)[C@H]1O [Sample 32, Salicin] | 1.5 |
| O=CC[C@H](O)[C@H](O)CO [Sample 21, 2-Deoxy-D-Ribose] | 1.7 |
| CO[C@H]1O[C@H](CO)[C@@H](O)[C@H](O)[C@H]1O [Sample 22, α-Methyl-D-Glucoside] | 3 |
| O.O.OC[C@H]1O[C@H](O[C@H]2O[C@H](CO)[C@@H](O)[C@H](O)[C@H]2O)[C@H](O)[C@@H](O)[C@@H]1O [Sample 26, D-Trehalose] | 30.1 |
| OC[C@H]1O[C@@H]2O[C@H]3[C@H](O)[C@@H](O)[C@@H](O[C@H]4[C@H](O)[C@@H](O)[C@@H](O[C@H]5[C@H](O)[C@@H](O)[C@@H](O[C@H]6[C@H](O)[C@@H](O)[C@@H](O[C@H]7[C@H](O)[C@@H](O)[C@@H](O[C@H]1[C@H](O)[C@H]2O)O[C@@H]7CO)O[C@@H]6CO)O[C@@H]5CO)O[C@@H]4CO)O[C@@H]3CO [Sample 23, α-Cyclodextrin] | 6.5 |
| O=C[C@@H](O)[C@H](O)[C@H](O)CO [Sample 24, D-Arabinose] | 2.2 |
| OC[C@H]1O[C@@H](O[C@@H]2[C@@H](CO)OC(O)(CO)[C@H]2O)[C@H](O)[C@@H](O)[C@H]1O (mixture of isomers) [Sample 28, Lactulose] | 3.9 |
